Each block holds one compound with its values, some of them ahead of it.
Columns and labels:
Format in all cases: physicochemical
[1] = Stability study of the crystal form I of compound A and the crystal form I of compound A p-toluenesulfonate (HPLC, XRPD)
Procedure: A certain amount of samples of the crystal form I of compound A and the crystal form I of compound A p-toluenesulfonate (Batch No.: PTSA-A1) were placed in a stability test chamber, and kept at 40° C./75%RH and 60° C. for 7 days, respectively. The samples were tested by HPLC and XRPD at various time points.

[2] = Solubility study in SGF, FaSSIF and FeSSIF (HPLC of filtrate, XRPD of solid); details: for Crystal form: XRPD of solid
Procedure: The solubilities of the crystal form I of compound A and the crystal form I of compound A p-toluenesulfonate in SGF (simulated gastric fluid), FaSSIF (fasted state simulated intestinal fluid) and FeSSIF (fed state simulated intestinal fluid) were studied.
The solubilities of samples in SGF, FaSSIF and FeSSIF at 37° C. for 24 hours were determined. 40 mg of the sample was placed in a sample bottle, and 1.5 mL of solvent was added. The mixture was mixed well, and shaken on a shaker at 200 rpm for 24 hours. The suspension was filtered at 0.5, 2 and 24 hours. The filtrate was analyzed by HPLC, and the solid was tested by XRPD.

[3] = Dynamic moisture adsorption and desorption analysis (DVS); details: for crystal form after DVS test (XRPD): before and after DVS test; for hygroscopicity (DVS): moisture range 0% to 90%
Procedure: The instrument model used for dynamic moisture adsorption and desorption analysis was IGA Sorp (Hidentity Isochema). The samples were measured in a gradient mode with a moisture range of 0% to 90%, wherein the humidity increment of each gradient was 10%.

SMILES: Cc1ccc(S(=O)(=O)O)cc1.O=C(Nc1ccc(OC(F)(F)Cl)cc1)c1cnc(N2CC[C@@H](F)C2)c(-c2cnccn2)c1
- Purity ([1]; 40° C./75% RH, Day 0, HPLC): 97.9%
- Purity ([1]; 40° C./75% RH, Day 3, HPLC): 97.9%
- Crystal form ([1]; 40° C./75% RH, Day 3, XRPD): Initial crystal form
- Purity ([1]; 40° C./75% RH, Day 7, HPLC): 97.9%
- Crystal form ([1]; 40° C./75% RH, Day 7, XRPD): Initial crystal form
- Purity ([1]; 60° C., Day 0, HPLC): 97.9%
- Purity ([1]; 60° C., Day 3, HPLC): 97.9%
- Crystal form ([1]; 60° C., Day 3, XRPD): Initial crystal form
- Purity ([1]; 60° C., Day 7, HPLC): 97.9%
- Crystal form ([1]; 60° C., Day 7, XRPD): Initial crystal form
- Solubility ([2]; FaSSIF, 37° C., 0.5 h): 4.5 µg/mL
- pH ([2]; FaSSIF, 37° C., 0.5 h): 6.38
- Crystal form ([2]; FaSSIF, 37° C., 0.5 h): Changed
- Solubility ([2]; FaSSIF, 37° C., 2 h): 3.7 µg/mL
- pH ([2]; FaSSIF, 37° C., 2 h): 3.48
- Crystal form ([2]; FaSSIF, 37° C., 2 h): Changed
- Solubility ([2]; FaSSIF, 37° C., 24 h): 16 µg/mL
- pH ([2]; FaSSIF, 37° C., 24 h): 1.91
- Crystal form ([2]; FaSSIF, 37° C., 24 h): Changed
- Solubility ([2]; FeSSIF, 37° C., 0.5 h): 100 µg/mL
- pH ([2]; FeSSIF, 37° C., 0.5 h): 4.53
- Crystal form ([2]; FeSSIF, 37° C., 0.5 h): Changed
- Solubility ([2]; FeSSIF, 37° C., 2 h): 93 µg/mL
- pH ([2]; FeSSIF, 37° C., 2 h): 4.51
- Crystal form ([2]; FeSSIF, 37° C., 2 h): Changed
- Solubility ([2]; FeSSIF, 37° C., 24 h): 180 µg/mL
- pH ([2]; FeSSIF, 37° C., 24 h): 4.50
- Crystal form ([2]; FeSSIF, 37° C., 24 h): Changed
- Solubility ([2]; SGF, 37° C., 0.5 h): 97 µg/mL
- pH ([2]; SGF, 37° C., 0.5 h): 1.23
- Crystal form ([2]; SGF, 37° C., 0.5 h): Initial crystal form
- Solubility ([2]; SGF, 37° C., 2 h): 67 µg/mL
- pH ([2]; SGF, 37° C., 2 h): 1.19
- Crystal form ([2]; SGF, 37° C., 2 h): Initial crystal form
- Solubility ([2]; SGF, 37° C., 24 h): 45 µg/mL
- pH ([2]; SGF, 37° C., 24 h): 1.18
- Crystal form ([2]; SGF, 37° C., 24 h): Changed

SMILES: Br.O=C(Nc1ccc(OC(F)(F)Cl)cc1)c1cnc(N2CC[C@@H](F)C2)c(-c2cnccn2)c1 [(R)-N-(4-(chlorodifluoromethoxy)phenyl)-6-(3-fluoropyrrolidin-1-yl)-5-(pyrazin-2-yl)nicotinamide hydrobromide]
- water absorption ([3]; 0-80%RH): about 0.67%
- crystal form after DVS test (XRPD) [3]: not changed
- hygroscopicity (DVS) [3]: slightly hygroscopic

Continued, in another order:

- water absorption ([3]; 0-80%RH): about 3.6%
- water absorption ([3]; 0-90%RH): about 40.3%
- crystal form after DVS test (XRPD) [3]: not changed
- hygroscopicity (DVS) [3]: hygroscopic
SMILES: CS(=O)(=O)O.O=C(Nc1ccc(OC(F)(F)Cl)cc1)c1cnc(N2CC[C@@H](F)C2)c(-c2cnccn2)c1 [crystal form I of compound A mesylate, (R)-N-(4-(chlorodifluoromethoxy)phenyl)-6-(3-fluoropyrrolidin-1-yl)-5-(pyrazin-2-yl)nicotinamide mesylate]

- crystal form stability (XRPD) ([1]; 7 days at 40° C./75% RH and 60° C.): remained unchanged
- water absorption ([3]; 0-80%RH): about 0.39%
- water absorption ([3]; 0-90%RH): about 0.61%
- crystal form after DVS test (XRPD) [3]: not changed
- hygroscopicity (DVS) [3]: slightly hygroscopic
- crystal form of the undissolved solid (XRPD) ([2]; FaSSIF and FeSSIF for 0.5 hours): changed
- crystal form of the undissolved solid (XRPD) ([2]; SGF for 24 hours): changed
- dependence of solubility on pH ([2]; SGF, FaSSIF, FeSSIF, 37° C.): affected by pH value
- solubility in a solution with a higher pH value ([2]; after 2 hours): higher solubility
SMILES: Cc1ccc(S(=O)(=O)O)cc1.O=C(Nc1ccc(OC(F)(F)Cl)cc1)c1cnc(N2CC[C@@H](F)C2)c(-c2cnccn2)c1 [(R)-N-(4-(chlorodifluoromethoxy)phenyl)-6-(3-fluoropyrrolidin-1-yl)-5-(pyrazin-2-yl)nicotinamide p-toluenesulfonate]
- solubility compared with the other form ([2]; FaSSIF and FeSSIF vehicles, 24 hours, 37° C.): higher solubility than that of the free base

- water absorption ([3]; 0-40%RH (relative humidity)): about 0.4%
- water absorption ([3]; 0-90%RH): about 2.8%
- crystal form after DVS test (XRPD) [3]: not changed
- hygroscopicity (DVS) [3]: slightly hygroscopic
SMILES: Cl.O=C(Nc1ccc(OC(F)(F)Cl)cc1)c1cnc(N2CC[C@@H](F)C2)c(-c2cnccn2)c1 [(R)-N-(4-(chlorodifluoromethoxy)phenyl)-6-(3-fluoropyrrolidin-1-yl)-5-(pyrazin-2-yl)nicotinamide hydrochloride]

Reference: patent US20230322717A1, “SOLID FORM OF PYRAZINE SUBSTITUTED NICOTINAMIDE, AND PREPARATION AND USE THEREOF” (Shenzhen TargetRx, Inc., priority 2020, published 2023)
